What all share (test): biochemical
Holding throughout (assay type): biochemical

Experiment [1] has as its target T1, 363 human kinases (including Aurora A/B/C) (Homo sapiens, UniProt Q96PF2).
T1 sequence (Q96PF2 1-358): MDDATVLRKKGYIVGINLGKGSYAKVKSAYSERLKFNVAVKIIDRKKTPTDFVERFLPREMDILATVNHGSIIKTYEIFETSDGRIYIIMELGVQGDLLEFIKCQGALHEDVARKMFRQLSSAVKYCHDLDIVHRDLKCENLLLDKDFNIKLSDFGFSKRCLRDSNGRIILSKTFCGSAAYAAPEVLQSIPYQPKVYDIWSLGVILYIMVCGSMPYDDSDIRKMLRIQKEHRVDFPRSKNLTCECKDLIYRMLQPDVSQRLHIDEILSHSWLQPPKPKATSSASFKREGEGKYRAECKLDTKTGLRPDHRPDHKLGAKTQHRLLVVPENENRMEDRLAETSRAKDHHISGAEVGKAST
Particulars: TSSK2; for remaining activity at 0.5 µM / remaining activity at 0.1 µM: read-out: % Enzyme Activity (relative to DMSO controls); for remaining activity at 0.1 µM: 100 nM.
From the text: (§1) However, the Aurora A/B selectivity ratios derived from our in vitro and in vivo data can be compared to prioritize inhibitors.

Experiment [2] addresses 363 human kinases (including Aurora A/B/C) (Homo sapiens, UniProt P42684). Particulars: ABL2/ARG, [ATP] 30 µM; for remaining activity at 0.5 µM / remaining activity at 0.1 µM: read-out: % Enzyme Activity (relative to DMSO controls); for remaining activity at 0.1 µM: 100 nM.
From the text: as §1
In experiment [3] the target is T2, 363 human kinases (including Aurora A/B/C) (Homo sapiens, UniProt Q9H093).
T2 sequence (Q9H093 1-628): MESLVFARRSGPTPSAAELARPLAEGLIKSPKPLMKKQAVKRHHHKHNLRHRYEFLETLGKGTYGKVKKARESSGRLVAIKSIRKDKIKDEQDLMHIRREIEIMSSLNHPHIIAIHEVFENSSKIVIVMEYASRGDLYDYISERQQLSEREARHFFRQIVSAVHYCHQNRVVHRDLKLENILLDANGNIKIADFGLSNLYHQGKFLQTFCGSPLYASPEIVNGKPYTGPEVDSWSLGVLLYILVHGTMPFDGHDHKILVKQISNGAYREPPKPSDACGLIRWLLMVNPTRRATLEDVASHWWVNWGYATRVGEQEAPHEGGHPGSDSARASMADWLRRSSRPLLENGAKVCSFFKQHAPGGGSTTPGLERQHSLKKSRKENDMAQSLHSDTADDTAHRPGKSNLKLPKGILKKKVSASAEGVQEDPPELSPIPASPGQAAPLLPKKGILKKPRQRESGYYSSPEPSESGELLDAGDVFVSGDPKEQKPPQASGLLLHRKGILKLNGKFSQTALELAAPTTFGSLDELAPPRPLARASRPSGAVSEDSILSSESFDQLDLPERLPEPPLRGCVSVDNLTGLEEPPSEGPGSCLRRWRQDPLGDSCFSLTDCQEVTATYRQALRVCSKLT
The following applies: SNARK/NUAK2; for remaining activity at 0.5 µM / remaining activity at 0.1 µM: read-out: % Enzyme Activity (relative to DMSO controls); for remaining activity at 0.1 µM: 100 nM.
From the text: as §1

The target of experiment [4] is 363 human kinases (including Aurora A/B/C) (Homo sapiens, UniProt P28482). Particulars: ERK2/MAPK1, [ATP] 50 µM; for remaining activity at 0.5 µM / remaining activity at 0.1 µM: read-out: % Enzyme Activity (relative to DMSO controls); for remaining activity at 0.1 µM: 100 nM.
From the text: as §1
Experiment [5] concerns the target 363 human kinases (including Aurora A/B/C) (Homo sapiens, UniProt P49761). Particulars: CLK3, [ATP] 10 µM; for remaining activity at 0.5 µM / remaining activity at 0.1 µM: read-out: % Enzyme Activity (relative to DMSO controls); for remaining activity at 0.1 µM: 100 nM.
From the text: as §1
Experiment [6] addresses 363 human kinases (including Aurora A/B/C) (Homo sapiens, UniProt P08631). The following applies: HCK; for remaining activity at 0.5 µM / remaining activity at 0.1 µM: read-out: % Enzyme Activity (relative to DMSO controls); for remaining activity at 0.1 µM: 100 nM.
From the text: as §1
Experiment [7] concerns the target T3, 363 human kinases (including Aurora A/B/C) (Homo sapiens, UniProt Q9BXA7).
T3 sequence (Q9BXA7 1-367): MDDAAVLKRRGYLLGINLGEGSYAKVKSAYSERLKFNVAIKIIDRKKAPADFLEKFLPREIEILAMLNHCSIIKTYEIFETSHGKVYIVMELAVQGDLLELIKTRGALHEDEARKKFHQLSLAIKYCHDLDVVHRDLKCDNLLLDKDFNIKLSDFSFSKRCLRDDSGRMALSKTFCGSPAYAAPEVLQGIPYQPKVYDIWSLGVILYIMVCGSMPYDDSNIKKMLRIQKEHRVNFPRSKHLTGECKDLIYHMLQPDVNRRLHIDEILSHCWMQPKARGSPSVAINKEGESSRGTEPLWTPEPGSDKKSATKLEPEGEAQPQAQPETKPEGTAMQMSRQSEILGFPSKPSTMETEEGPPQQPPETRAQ
Particulars: STK22D/TSSK1; for remaining activity at 0.5 µM / remaining activity at 0.1 µM: read-out: % Enzyme Activity (relative to DMSO controls); for remaining activity at 0.1 µM: 100 nM.
From the text: as §1

In experiment [8] the target is 363 human kinases (including Aurora A/B/C) (Homo sapiens, UniProt P06213). The following applies: IR; for remaining activity at 0.5 µM / remaining activity at 0.1 µM: read-out: % Enzyme Activity (relative to DMSO controls); for remaining activity at 0.1 µM: 100 nM.
From the text: as §1

This is an account of results in PMC4685510, “A Cell Biologist’s Field Guide to Aurora Kinase Inhibitors” (Frontiers in Oncology, 2015).

363 human kinases (including Aurora A/B/C) (Homo sapiens, UniProt P06213), sequence (P06213 28-1382): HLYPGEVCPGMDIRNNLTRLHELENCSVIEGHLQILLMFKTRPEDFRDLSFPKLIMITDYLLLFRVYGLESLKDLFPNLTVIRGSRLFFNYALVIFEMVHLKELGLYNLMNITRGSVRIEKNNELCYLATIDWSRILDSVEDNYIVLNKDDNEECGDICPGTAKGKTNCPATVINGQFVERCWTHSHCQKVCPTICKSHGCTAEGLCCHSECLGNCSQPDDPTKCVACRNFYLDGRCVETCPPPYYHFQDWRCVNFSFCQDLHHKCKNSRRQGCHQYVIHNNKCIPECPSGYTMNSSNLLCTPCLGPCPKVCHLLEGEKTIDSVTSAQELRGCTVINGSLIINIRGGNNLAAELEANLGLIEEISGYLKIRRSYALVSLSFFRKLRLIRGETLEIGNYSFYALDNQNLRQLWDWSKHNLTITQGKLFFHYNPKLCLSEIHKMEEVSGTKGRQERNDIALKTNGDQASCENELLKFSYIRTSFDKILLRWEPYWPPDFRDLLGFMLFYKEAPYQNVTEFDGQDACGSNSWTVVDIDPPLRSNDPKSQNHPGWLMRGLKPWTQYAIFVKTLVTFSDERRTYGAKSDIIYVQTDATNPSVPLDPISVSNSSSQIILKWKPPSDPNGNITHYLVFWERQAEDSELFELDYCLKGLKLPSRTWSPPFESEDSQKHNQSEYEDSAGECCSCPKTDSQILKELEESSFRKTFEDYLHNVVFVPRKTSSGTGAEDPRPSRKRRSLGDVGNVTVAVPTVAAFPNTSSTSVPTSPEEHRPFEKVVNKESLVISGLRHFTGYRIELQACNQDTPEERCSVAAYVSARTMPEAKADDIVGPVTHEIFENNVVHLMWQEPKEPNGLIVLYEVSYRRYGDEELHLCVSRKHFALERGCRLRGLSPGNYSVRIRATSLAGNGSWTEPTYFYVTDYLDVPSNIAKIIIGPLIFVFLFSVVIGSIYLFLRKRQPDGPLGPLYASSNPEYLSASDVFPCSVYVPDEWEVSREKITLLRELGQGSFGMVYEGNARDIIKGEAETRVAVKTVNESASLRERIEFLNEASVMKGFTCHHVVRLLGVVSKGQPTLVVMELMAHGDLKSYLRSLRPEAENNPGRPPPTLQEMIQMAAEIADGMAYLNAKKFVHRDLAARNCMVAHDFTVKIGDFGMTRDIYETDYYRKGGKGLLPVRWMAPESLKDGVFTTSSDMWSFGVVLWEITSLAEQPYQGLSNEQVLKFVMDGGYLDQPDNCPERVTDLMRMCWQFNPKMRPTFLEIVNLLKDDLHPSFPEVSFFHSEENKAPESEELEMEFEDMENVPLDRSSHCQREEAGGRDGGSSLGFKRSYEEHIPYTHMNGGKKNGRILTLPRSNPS
363 human kinases (including Aurora A/B/C) (Homo sapiens, UniProt P42684), sequence (P42684 whole entry): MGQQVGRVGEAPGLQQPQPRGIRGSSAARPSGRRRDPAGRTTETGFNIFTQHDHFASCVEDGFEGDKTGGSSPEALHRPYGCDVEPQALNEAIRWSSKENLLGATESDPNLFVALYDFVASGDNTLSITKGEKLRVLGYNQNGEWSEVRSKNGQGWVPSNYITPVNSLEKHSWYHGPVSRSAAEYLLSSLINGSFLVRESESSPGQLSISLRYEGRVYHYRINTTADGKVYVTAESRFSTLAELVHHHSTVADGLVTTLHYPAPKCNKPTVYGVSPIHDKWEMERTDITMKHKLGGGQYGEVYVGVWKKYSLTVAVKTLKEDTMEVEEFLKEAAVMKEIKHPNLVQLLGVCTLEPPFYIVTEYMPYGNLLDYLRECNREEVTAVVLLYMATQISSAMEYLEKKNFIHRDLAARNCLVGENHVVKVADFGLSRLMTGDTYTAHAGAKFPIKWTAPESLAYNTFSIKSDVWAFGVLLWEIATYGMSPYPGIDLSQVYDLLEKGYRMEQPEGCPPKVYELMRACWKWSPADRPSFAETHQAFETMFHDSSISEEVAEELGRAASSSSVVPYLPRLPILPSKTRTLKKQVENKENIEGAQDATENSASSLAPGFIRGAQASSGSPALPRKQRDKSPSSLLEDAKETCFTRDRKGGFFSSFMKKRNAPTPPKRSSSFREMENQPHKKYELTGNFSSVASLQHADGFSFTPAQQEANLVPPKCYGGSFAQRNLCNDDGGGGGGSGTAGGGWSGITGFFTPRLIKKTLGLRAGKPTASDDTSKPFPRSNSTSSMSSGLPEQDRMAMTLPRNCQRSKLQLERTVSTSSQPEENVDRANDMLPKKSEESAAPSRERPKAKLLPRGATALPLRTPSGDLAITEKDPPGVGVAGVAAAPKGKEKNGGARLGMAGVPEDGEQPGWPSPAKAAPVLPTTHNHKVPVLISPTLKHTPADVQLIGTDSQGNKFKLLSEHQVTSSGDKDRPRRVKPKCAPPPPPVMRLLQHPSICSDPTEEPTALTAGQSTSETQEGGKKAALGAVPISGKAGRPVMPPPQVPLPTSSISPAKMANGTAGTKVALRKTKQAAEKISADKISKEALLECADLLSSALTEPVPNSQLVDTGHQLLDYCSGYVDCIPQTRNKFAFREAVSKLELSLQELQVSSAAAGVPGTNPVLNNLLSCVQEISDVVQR
363 human kinases (including Aurora A/B/C) (Homo sapiens, UniProt P28482), sequence (P28482 whole entry): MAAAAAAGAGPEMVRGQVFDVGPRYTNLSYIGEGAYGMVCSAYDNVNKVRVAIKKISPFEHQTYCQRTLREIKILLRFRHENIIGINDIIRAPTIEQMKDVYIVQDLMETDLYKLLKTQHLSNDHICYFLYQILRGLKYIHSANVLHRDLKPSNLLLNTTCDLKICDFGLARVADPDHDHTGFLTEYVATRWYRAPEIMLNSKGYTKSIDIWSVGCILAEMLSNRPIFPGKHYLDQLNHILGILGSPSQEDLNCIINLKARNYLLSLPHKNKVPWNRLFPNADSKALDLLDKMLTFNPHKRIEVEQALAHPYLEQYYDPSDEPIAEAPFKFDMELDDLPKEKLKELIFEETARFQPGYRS
363 human kinases (including Aurora A/B/C) (Homo sapiens, UniProt P08631), sequence (P08631 whole entry): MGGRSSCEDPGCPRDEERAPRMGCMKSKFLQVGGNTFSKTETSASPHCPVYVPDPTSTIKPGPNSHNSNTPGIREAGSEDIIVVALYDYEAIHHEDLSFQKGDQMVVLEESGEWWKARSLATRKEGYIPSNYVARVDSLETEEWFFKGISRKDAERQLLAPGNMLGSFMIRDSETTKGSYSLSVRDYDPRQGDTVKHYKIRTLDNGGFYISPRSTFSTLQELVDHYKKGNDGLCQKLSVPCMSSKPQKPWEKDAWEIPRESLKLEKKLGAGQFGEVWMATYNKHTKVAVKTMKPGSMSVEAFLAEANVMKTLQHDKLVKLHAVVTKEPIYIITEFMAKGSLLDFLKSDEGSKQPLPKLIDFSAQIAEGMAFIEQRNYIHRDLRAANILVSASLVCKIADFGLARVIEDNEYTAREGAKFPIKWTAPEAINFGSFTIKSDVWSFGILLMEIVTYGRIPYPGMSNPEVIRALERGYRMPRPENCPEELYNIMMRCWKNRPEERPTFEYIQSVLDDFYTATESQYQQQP
363 human kinases (including Aurora A/B/C) (Homo sapiens, UniProt P49761), sequence (P49761 whole entry): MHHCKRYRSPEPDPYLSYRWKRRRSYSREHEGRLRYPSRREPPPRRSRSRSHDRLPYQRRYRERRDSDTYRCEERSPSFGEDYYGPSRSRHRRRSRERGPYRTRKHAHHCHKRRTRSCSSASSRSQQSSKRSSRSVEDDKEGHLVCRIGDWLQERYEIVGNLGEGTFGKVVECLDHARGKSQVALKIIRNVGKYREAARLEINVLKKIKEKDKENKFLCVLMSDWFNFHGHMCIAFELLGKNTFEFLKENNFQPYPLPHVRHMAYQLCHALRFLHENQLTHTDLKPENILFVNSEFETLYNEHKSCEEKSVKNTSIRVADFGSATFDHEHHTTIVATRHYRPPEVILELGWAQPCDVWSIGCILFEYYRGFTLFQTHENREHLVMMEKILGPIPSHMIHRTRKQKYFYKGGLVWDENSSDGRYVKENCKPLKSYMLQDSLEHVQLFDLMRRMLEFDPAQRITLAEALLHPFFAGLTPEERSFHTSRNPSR

Consider `O=C(c1cccc(Cl)c1F)N1CCN(Cc2cccc(Nc3nccs3)n2)CC1` [MK-8745], for which the “% Enzyme Activity (relative to DMSO controls)” value in experiment [1] (500 nM) stood at 93.76%; in experiment [2] (500 nM) it was 85.19%; in experiment [3] (500 nM) it was 85.75%; in experiment [4] (500 nM), 103.36%; in experiment [5] (500 nM), 82.30%; in experiment [6] (500 nM), 52.42%. Besides, the “% Enzyme Activity (relative to DMSO controls)” value amounted to 93.43% in experiment [7] (500 nM) and 89.30% in experiment [8] (500 nM). The remaining activity at 0.5 µM in experiment [1] (500 nM) is 94.7%; in experiment [2] (500 nM), 85.8%; in experiment [3] (500 nM), 88.1%; in experiment [4] (500 nM), 104%; in experiment [5] (500 nM), 82.7%; in experiment [6] (500 nM), 53.9%. Also, the remaining activity at 0.5 µM in experiment [7] (500 nM) was determined as 93.6%; in experiment [8] (500 nM), 91.1%.

In the case of `CCn1cc(-c2ccnc3[nH]c(-c4cccc(CN(C)C)c4)cc23)c(-c2ccc(NC(=O)N(C)C)cc2)n1` [GSK1070916], the remaining activity at 0.1 µM was found to be 99.9% in experiment [1]; 94.2% in experiment [2]; 88.7% in experiment [3]; 101% in experiment [4]; 83.4% in experiment [5]; 102% in experiment [6]. The values for the remaining activity at 0.1 µM in experiment [7] and in experiment [8] were 90.1% and 97.8%, respectively.

As for `O=C(O)[C@]1(Cc2cccc(Nc3nccs3)n2)CC[C@@H](Oc2cccc(Cl)c2F)CC1` [MK-5108], the remaining activity at 0.1 µM in experiment [1] was determined as 103%; in experiment [2], 12.2%; in experiment [3], 104%; in experiment [4] it was 98.4%; in experiment [5] it was 97.5%; in experiment [6] it was 46.1%. Besides, the results for the remaining activity at 0.1 µM in experiment [7] and in experiment [8] were 106% and 98.3%, respectively. In addition, the remaining activity at 0.5 µM in experiment [1] (500 nM) came to 91.5%; in experiment [2] (500 nM), 2.32%; in experiment [3] (500 nM) it was 70.8%; in experiment [4] (500 nM), 106%; in experiment [5] (500 nM) it was 71.5%; in experiment [6] (500 nM) it was 20.2%. The remaining activity at 0.5 µM was found to be 94.4% in experiment [7] (500 nM) and 80.5% in experiment [8] (500 nM).
